Experimental data reported in patent US7067113B2, “Methods for identifying compounds for regulating muscle mass or function using dopamine receptors” (The Procter & Gamble Company, priority 2002, dated 2006).

Columns and labels:
[1] = system: casting-induced (disuse) atrophy in mice; test: leg casting disuse atrophy model; format: in vivo, mouse; conditions: male mice
Experimental: Legend: A—physiological saline (control); B—SKF 81297 (0.3 mg/kg)+theophylline; C—SKF 81297 (1.0 mg/kg)+theophylline; D—SKF 81297 (3.0 mg/kg)+theophylline; *−p≦0.05 compared to saline. Following casting of the right hind leg, male mice were injected subcutaneously in the midscapular region twice daily, with SKF 81297 or vehicle control (physiological saline) for ten days at the daily delivered dose indicated. SKF 81297 was co-administered with twice daily intra-peritoneal dosing of the phosphodiesterase inhibitor theophylline (30 mg/kg). On day ten, the tibialis anterior muscle was removed and weighed to determine the degree of atrophy.
Legend: A—physiological saline (control); B—fenoldopam (0.3 mg/kg); C—fenoldopam (1.0 mg/kg); D—fenoldopam (3.0 mg/kg); *−p≦0.05 compared to saline. Following casting of the right hind leg, male mice were injected subcutaneously in the midscapular region twice daily, with fenoldopam or vehicle control (physiological saline) for ten days at the daily delivered dose indicated. On day ten, the medial gastrocnemius muscle was removed and weighed to determine the degree of atrophy.
The leg casting disuse atrophy model involves casting one hind leg of an animal from the knee down through the foot. Typically, muscle mass is reduced 20–40% after ten days of casting. Following casting, test compounds are administered by injection or by continuous infusion via implantation of an osmotic minipump (e.g., Alzet, Palo Alto, Calif.) to determine their effect on leg casting induced skeletal muscle atrophy. At various times following leg casting, the extent of atrophy in the affected muscles is analyzed as described above for the denervation model.

[2] = system: mouse sciatic nerve denervation atrophy model; test: mouse sciatic nerve denervation atrophy model; format: in vivo; conditions: male mice
Experimental: Legend: A—physiological saline (control); B—SKF 81297 (0.3 mg/kg)+theophylline; C—SKF 81297 (1.0 mg/kg)+theophylline; D—SKF 81297 (3.0 mg/kg)+theophylline. *−p≦0.05 compared to saline. Following denervation of the right sciatic nerve, male mice were injected subcutaneously in the midscapular region twice daily with SKF 81297, at the doses indicated above or vehicle control (physiological saline) for nine days. SKF 81297 was co-administered with twice daily intra-peritoneal dosing of the phosphodiesterase inhibitor theophylline (30 mg/kg). On day nine, the tibialis anterior and medial gastrocnemius muscles were removed and weighed to determine the degree of atrophy.
The sciatic nerve denervation atrophy model involves anesthetizing the animal followed by the surgical removal of a short segment of either the right or left sciatic nerve, e.g., in mice the sciatic nerve is isolated approximately at the midpoint along the femur and a 3–5 mm segment is removed. This denervates the lower hind limb musculature resulting in atrophy of these muscles. Typically, innervation to the biceps femoris is left intact to provide satisfactory motion of the knee for virtually normal ambulation. Typically, in untreated animals, muscle mass of the denervated muscles is reduced 30–50% ten days following denervation. Following denervation, test compounds are administered e.g., by injection or by continuous infusion, e.g., via implantation of an osmotic minipump (e.g., Alzet, Palo Alto, Calif.), to determine their effect on denervation induced skeletal muscle atrophy. At various times following denervation, the animals are euthanized and lower leg muscles are dissected rapidly from both the denervated and nondenervated legs, the muscles, cleaned of tendons and connective tissue, are weighed. The extent of atrophy in the affected muscles is analyzed, for example, by measuring muscle mass, muscle cross-sectional area, myofiber cross-sectional area or contractile protein content.

## Oc1ccc(C2CNCCc3c2cc(O)c(O)c3Cl)cc1 (stereo not shown) [Fenoldopam, 6-chloro-2,3,4,5-tetrahydro-1-(4-hydroxyphenyl)-[1H]-3-benzazepine-7,8-diol]
[1]; right hind leg casted, s.c. twice daily for ten days, 0.3, 1.0, 3.0 mg/kg, FIG. 3
  disuse-induced atrophy of the medial gastrocnemius muscle (muscle weight): inhibits

## Oc1cc2c(c(Cl)c1O)CCNCC2c1ccccc1 (stereo not shown) [SKF 81297, 6-chloro-7,8-dihydroxyl-1-phenyl-2,3,4,5-tetrahydro-1H-3-benzazepine]
[2]; s.c. twice daily for nine days, 0.3, 1.0, 3.0 mg/kg, + theophylline 30 mg/kg i.p. twice daily, FIG. 1A
  denervation-induced atrophy of the tibialis anterior muscle (muscle weight): inhibits
[2]; s.c. twice daily for nine days, 0.3, 1.0, 3.0 mg/kg, + theophylline 30 mg/kg i.p. twice daily, FIG. 1B
  denervation-induced atrophy of the medial gastrocnemius muscle (muscle weight): inhibits
[2]; s.c. twice daily for nine days, + theophylline 30 mg/kg i.p., FIG. 1A
  hypertrophy in the normal (non-denervated) tibialis anterior muscle: induces hypertrophy
[2]; s.c. twice daily for nine days, + theophylline 30 mg/kg i.p., FIG. 1B
  hypertrophy in the normal (non-denervated) medial gastrocnemius muscle: induces hypertrophy
[1]; right hind leg casted, s.c. twice daily for ten days, 0.3, 1.0, 3.0 mg/kg, + theophylline 30 mg/kg i.p. twice daily, FIG. 2
  disuse-induced atrophy of the tibialis anterior muscle (muscle weight): inhibits
[1]; s.c. twice daily for ten days, + theophylline 30 mg/kg i.p., FIG. 2
  hypertrophy of the tibialis anterior muscles of the non-casted leg: statistically significant hypertrophy
